Data reported in ChEMBL document CHEMBL1137544, “Syntheses of immunomodulating androstanes and stigmastanes: comparison of their TNF-alpha inhibitory activity” (Bioorg Med Chem, 2007).
Active and inactive are the calls of the source. The rule behind the calls is not given here.

How the values were obtained:
J774.A1 [1] = assay: Inhibition of LPS-induced TNFalpha production in mouse J774A.1 cells; format: functional, cell-based
J774.A1 [2] = assay: Cytotoxicity against mouse J774A.1 cells; format: cell-based

| Compound | IC50 (J774.A1 [1]) [nM] | further results |
| --- | --- | --- |
| CC[C@@H](C(C)C)[C@H](O)[C@@H](O)[C@@H](C)[C@H]1CC[C@H]2[C@@H]3CC=C4C[C@@H](F)CC[C@]4(C)[C@H]3CC[C@]12C | – | Activity (J774.A1 [1]): inactive |
| CC[C@@H](C(C)C)[C@H](O)[C@@H](O)[C@@H](C)[C@H]1CC[C@H]2[C@@H]3CC=C4C[C@@H](Br)CC[C@]4(C)[C@H]3CC[C@]12C | 144 | – |
| C[C@]12CC[C@H]3[C@@H](CC(=O)[C@@]4(O)C[C@@H](Br)CC[C@]34C)[C@@H]1CCC(=O)O2 | – | Activity (J774.A1 [1]): inactive |
| CC[C@@H](C(C)C)[C@@H](O)[C@H](O)[C@@H](C)[C@H]1CC[C@H]2[C@@H]3CC(=O)[C@@]4(O)C[C@@H](Br)CC[C@]4(C)[C@H]3CC[C@]12C | – | Activity (J774.A1 [2]): Toxic |
| CC[C@@H](C(C)C)[C@H](O)[C@@H](O)[C@@H](C)[C@H]1CC[C@H]2[C@@H]3CC=C4C[C@@H](Cl)CC[C@]4(C)[C@H]3CC[C@]12C | – | Activity (J774.A1 [1]): inactive |
| CC[C@@H](C(C)C)[C@H](O)[C@@H](O)[C@@H](C)[C@H]1CC[C@H]2[C@@H]3CC(=O)[C@@]4(O)C[C@@H](Br)CC[C@]4(C)[C@H]3CC[C@]12C | 38 | – |
| CC[C@@H](C(C)C)[C@H](O)[C@@H](O)[C@@H](C)[C@H]1CC[C@H]2[C@@H]3CC=C4C[C@@H](O)CC[C@]4(C)[C@H]3CC[C@]12C | 35 | – |
| CC[C@@H](C(C)C)[C@H](O)[C@@H](O)[C@@H](C)[C@H]1CC[C@H]2[C@@H]3CC(=O)[C@@]4(O)C[C@@H](F)CC[C@]4(C)[C@H]3CC[C@]12C | 47 | – |
| C[C@]12CC[C@H]3[C@@H](CC(=O)[C@@]4(O)C[C@@H](O)CC[C@]34C)[C@@H]1CCC2=O | 109 | – |
| C[C@]12CC[C@H](O)CC1=CC[C@@H]1[C@@H]2CC[C@]2(C)C(=O)CC[C@@H]12 [PRASTERONE] | 141 | – |
| CC[C@@H](C(C)C)[C@@H](O)[C@H](O)[C@@H](C)[C@H]1CC[C@H]2[C@@H]3CC(=O)[C@@]4(O)C[C@@H](F)CC[C@]4(C)[C@H]3CC[C@]12C | – | Activity (J774.A1 [2]): Toxic |
| C[C@]12CC[C@H]3[C@@H](CC(=O)[C@@]4(O)C[C@@H](Br)CC[C@]34C)[C@@H]1CCC2=O | 134 | – |
| CC[C@@H](C(C)C)[C@H](O)[C@@H](O)[C@@H](C)[C@H]1CC[C@H]2[C@@H]3CC(=O)[C@@]4(O)C[C@@H](O)CC[C@]4(C)[C@H]3CC[C@]12C | 18 | – |
| C[C@@H]1C[C@H]2[C@@H]3CCC4=CC(=O)C=C[C@]4(C)[C@@]3(F)[C@@H](O)C[C@]2(C)[C@@]1(O)C(=O)CO [DEXAMETHASONE] | 48 | – |
